From patent US20250320213A1, “Nitrogen-Containing Heterocyclic Compounds” (Pfizer Inc., priority 2024, published 2025) come the findings set out here.

Usually pEC50 stands for the EC50 on a negative log10 scale, so that one unit is a factor of ten. The term pIC50 denotes −log10 of the IC50, conventionally taken in molar units. A higher pIC50 goes with a small IC50.

pEC50, pIC50: −log10 of the molar value. Like-named read-outs stand apart in the source and are kept apart here. Some results are limits rather than exact numbers.

One assay addresses T1, STAT6 (Homo sapiens, UniProt P42226).
T1 construct: stably transfected HaCaT keratinocyte cell line, which expresses NanoLuc luciferase reporter gene under the transcriptional control of the STAT6 responsive promoter; endogenous in cells; host or cells: HaCaT keratinocyte reporter cell line (stably transfected with a NanoLuc reporter)
T1 sequence (P42226 1-847): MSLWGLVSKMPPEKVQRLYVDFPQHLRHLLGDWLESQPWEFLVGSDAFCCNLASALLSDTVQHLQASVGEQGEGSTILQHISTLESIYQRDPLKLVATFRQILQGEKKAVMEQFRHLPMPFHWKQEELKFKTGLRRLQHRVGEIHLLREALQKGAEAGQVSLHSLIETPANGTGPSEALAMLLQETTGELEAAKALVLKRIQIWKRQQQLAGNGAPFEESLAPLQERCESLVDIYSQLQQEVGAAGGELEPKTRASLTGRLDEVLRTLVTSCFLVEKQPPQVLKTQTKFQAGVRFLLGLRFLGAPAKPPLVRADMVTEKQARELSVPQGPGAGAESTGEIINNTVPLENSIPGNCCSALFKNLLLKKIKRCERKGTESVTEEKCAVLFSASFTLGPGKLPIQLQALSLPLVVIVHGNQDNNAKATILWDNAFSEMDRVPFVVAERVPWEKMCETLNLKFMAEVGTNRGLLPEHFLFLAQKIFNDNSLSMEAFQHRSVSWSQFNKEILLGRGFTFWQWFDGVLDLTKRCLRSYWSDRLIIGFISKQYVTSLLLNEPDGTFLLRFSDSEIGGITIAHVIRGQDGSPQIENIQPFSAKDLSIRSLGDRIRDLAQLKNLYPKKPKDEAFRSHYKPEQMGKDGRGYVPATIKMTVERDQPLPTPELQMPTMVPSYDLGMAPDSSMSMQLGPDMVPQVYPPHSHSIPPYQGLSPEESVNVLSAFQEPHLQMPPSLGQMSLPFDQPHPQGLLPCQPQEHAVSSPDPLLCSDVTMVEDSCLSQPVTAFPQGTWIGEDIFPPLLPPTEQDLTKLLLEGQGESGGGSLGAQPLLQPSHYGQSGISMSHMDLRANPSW
Kind of assay: STAT6 Reporter Luciferase Assay (IL-13 stimulated HaCaT keratinocyte NanoLuc reporter cells). It is filed as cell-based. The note with it: read-out: Reporter EC50. The essentials:
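HaCaT IL-13Ra2-promoter NanoLuc reporter; cpd 2 h 37 °C in DMEM/2% HI FBS; IL-13 0.12 nM final, 4 h; Nano-Glo luminescence.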

Assay [1] relates to CCL17 secretion in peripheral human whole blood. Kind of assay: Human Whole Blood (HWB) CCL17 TR-FRET Assay (IL-13 stimulated CCL17 secretion). It is filed as cell-based. The essentials: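 Heparinized human whole blood was preincubated with compound (11-point, 3-fold series) for 2 h at 37°C, then stimulated with IL-13 (10 ng/mL final) for 48 h. Serum CCL17 was measured by TR-FRET sandwich immunoassay (665/615 nm ratio) after 16 h at room temperature, giving IC50.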
Background: TR-FRET usually uses a lanthanide donor and a delayed reading to cut background.

[2] abbreviates: IL-13 stimulated HaCaT STAT6 NanoLuc reporter cells.
[3] abbreviates: Homo sapiens, 48 h, human whole blood, IL-13 stimulated.
Setting [4] is: human whole blood, IL-13 stimulated, 48 hours.
Where [5] appears, read: STAT6 NanoLuc luciferase reporter, IL-13 stimulated HaCaT keratinocyte cells.
Setting [6] is: Homo sapiens, 48 h, inhibition of CCL17 secretion in human whole blood, 10 ng/mL IL13, 48 hours.
Setting [7] is: Homo sapiens, 48 h, human whole blood, 10 ng/mL IL13, 48 hours.
Setting [8] is: Homo sapiens, 48 h, human whole blood, IL-13 10 ng/mL.

Take `C[C@@H]1c2c(C(=O)NCc3ccc(NC(=O)N(C)C)cc3)nn(C)c2CCN1c1ccc(C(=O)N(C)C)cn1` (single isomer, unassigned) [Example 445]: the negative-log EC50 (pEC50) on STAT6 (setting [2]) was 8.70. In addition, the negative-log IC50 (pIC50) in assay [1] (setting [3]) was 7.68.
As for `CC(C)n1nc(C(=O)NCc2ccc(NC(=O)N(C)C)cc2)c2c1CCN(c1ccc(C3CCNC3=O)cn1)C2` (racemic) [Example 469, rac-(R)—N-(4-(3,3-Dimethylureido)benzyl)-1-isopropyl-5-(5-(2-oxopyrrolidin-3-yl)pyridin-2-yl)-4,5,6,7-tetrahydro-1H-pyrazolo[4,3-c]pyridine-3-carboxamide], on STAT6 (setting [2]), the negative-log EC50 (pEC50) was 5.29. This molecule also gave a pIC50 in assay [1] (setting [4]) of less than 5.38.
For `CC(C)n1nc(C(=O)NCc2ccc(NC(=O)N3CCC4(CNCCO4)C3)cc2)c2c1CCN(c1ccc(C(=O)N(C)C)cn1)C2` (racemic) [Example 164, rac-(R)-N-(4-((5-(5-(dimethylcarbamoyl)pyridin-2-yl)-1-isopropyl-4,5,6,7-tetrahydro-1H-pyrazolo[4,3-c]pyridine-3-carboxamido)methyl)phenyl)-6-oxa-2,9-diazaspiro[4.5]decane-2-carboxamide], on STAT6 (setting [5]), the negative-log EC50 (pEC50) was 7.89. In addition, the negative logarithm of the IC50 (pIC50) in assay [1] (setting [6]) is 7.35.
Take `CC(C)n1nc(C(=O)NCc2ccc(NC(=O)N3CCN(C)CC3)cc2)c2c1[C@@H](C)CN(c1ccc(C(=O)N3Cc4cccnc4C3)cc1)C2` [Example 614, (S)-5-(4-(6,7-dihydro-5H-pyrrolo[3,4-b]pyridine-6-carbonyl)phenyl)-1-isopropyl-7-methyl-N-(4-(4-methylpiperazine-1-carboxamido)benzyl)-4,5,6,7-tetrahydro-1H-pyrazolo[4,3-c]pyridine-3-carboxamide]: the pEC50 at STAT6 (setting [2]) is 9.40. Moreover, the pIC50 in assay [1] (setting [7]) was 8.15.
Regarding `CC1CN(c2ccc(-c3nccn3C)cn2)Cc2c(C(=O)NCc3ccc(NC(=O)N(C)C)cc3)nn(C)c21` (racemic) [Example 59, rac-(R)-N-(4-(3,3-dimethylureido)benzyl)-1,7-dimethyl-5-(5-(1-methyl-1H-imidazol-2-yl)pyridin-2-yl)-4,5,6,7-tetrahydro-1H-pyrazolo[4,3-c]pyridine-3-carboxamide], the pEC50 on STAT6 (setting [5]) is 8.52. Besides, the pIC50 in assay [1] (setting [6]) was 7.57.
Taken in the same sequence, the figures for `CC(C)n1nc(C(=O)NCc2ccc(NC(=O)N(C)C)cc2)c2c1CCN(c1ccc(N3C(=O)CC[C@H]3CO)cn1)C2` [Example 69, (S)-N-(4-(3,3-dimethylureido)benzyl)-5-(5-(2-(hydroxymethyl)-5-oxopyrrolidin-1-yl)pyridin-2-yl)-1-isopropyl-4,5,6,7-tetrahydro-1H-pyrazolo[4,3-c]pyridine-3-carboxamide] were 5.97 and 5.09.
On the same counts, the results for `CC(C)n1nc(C(=O)NCc2ccc(NC(=O)N(C)C)cc2)c2c1CCN(c1ccc(-c3nccn3C)cn1)C2` [Example 45, N-(4-(3,3-Dimethylureido)benzyl)-1-isopropyl-5-(5-(1-methyl-1H-imidazol-2-yl)pyridin-2-yl)-4,5,6,7-tetrahydro-1H-pyrazolo[4,3-c]pyridine-3-carboxamide] are 8.40 and 7.30.
On the same counts, the results for `CC(C)n1nc(C(=O)NCc2ccc(NC(=O)N(C)C)cc2)c2c1CCN(c1ccc(C(N)=O)cn1)C2` [Example 137, 5-(5-carbamoylpyridin-2-yl)-N-(4-(3,3-dimethylureido)benzyl)-1-isopropyl-4,5,6,7-tetrahydro-1H-pyrazolo[4,3-c]pyridine-3-carboxamide] are 5.73 and 5.01.
For `CC(C)n1nc(C(=O)NCc2ccc(NC(=O)N3CC[C@H](C#N)C3)cc2)c2c1CCN(c1ccc(C(=O)N(C)C)cn1)C2` [Example 182, (S)-N-(4-(3-cyanopyrrolidine-1-carboxamido)benzyl)-5-(5-(dimethylcarbamoyl)pyridin-2-yl)-1-isopropyl-4,5,6,7-tetrahydro-1H-pyrazolo[4,3-c]pyridine-3-carboxamide], the pEC50 at STAT6 (setting [2]) is 7.77. Moreover, the pIC50 in assay [1] (setting [3]) is 6.88.
On the same counts, the results for `C[C@H]1CN(c2ncc(C(=O)N(C)C)cn2)Cc2c(C(=O)NCc3ccc(NC(=O)N(C)C)cc3)nn(C)c21` (single isomer, unassigned) [Example 273] are 8.52 and 7.92.
Regarding `CC(C)n1nc(C(=O)NCc2ccc(NC(=O)N3CCN(C)CC3)cc2F)c2c1[C@@H](C)CN(c1ccc(C(=O)N(C)C)cc1)C2` [Example 718, (S)-5-(4-(dimethylcarbamoyl)phenyl)-N-(2-fluoro-4-(4-methylpiperazine-1-carboxamido)benzyl)-1-isopropyl-7-methyl-4,5,6,7-tetrahydro-1H-pyrazolo[4,3-c]pyridine-3-carboxamide], the negative logarithm of the EC50 (pEC50) on STAT6 (setting [2]) was 9.00. The same molecule showed a pIC50 in assay [1] (setting [8]) of 7.74.
Consider `CC(C)n1nc(C(=O)NCc2ccc(NC(=O)N3CC(F)C3)cc2)c2c1[C@@H](C)CN(c1ccc(C(=O)N(C)C)cn1)C2` [Example 584, (S)-5-(5-(dimethylcarbamoyl)pyridin-2-yl)-N-(4-(3-fluoroazetidine-1-carboxamido)benzyl)-1-isopropyl-7-methyl-4,5,6,7-tetrahydro-1H-pyrazolo[4,3-c]pyridine-3-carboxamide], for which the pEC50 on STAT6 (setting [2]) was 9.00. The negative logarithm of the IC50 (pIC50) in assay [1] (setting [7]) was 7.92.
`CN(C)C(=O)Nc1ccc(CNC(=O)c2ncn3c2CN(c2ccc(C(=O)N(C)C)cn2)CC3)cc1` [Example 17, 7-(5-(dimethylcarbamoyl)pyridin-2-yl)-N-(4-(3,3-dimethylureido)benzyl)-5,6,7,8-tetrahydroimidazo[1,5-a]pyrazine-1-carboxamide]: the negative logarithm of the EC50 (pEC50) on STAT6 (setting [5]) was 6.49. The molecule also showed a pIC50 in assay [1] (setting [6]) of 6.54.
`CC1CN(c2ccc(-c3nccn3C)cn2)Cc2c(C(=O)NCc3ccc(NC(=O)N(C)C)cc3)nn(C)c21` (single isomer, unassigned) [Example 204, rel-(R or S)-N-(4-(3,3-dimethylureido)benzyl)-1,7-dimethyl-5-(5-(1-methyl-1H-imidazol-2-yl)pyridin-2-yl)-4,5,6,7-tetrahydro-1H-pyrazolo[4,3-c]pyridine-3-carboxamide]: at STAT6 (setting [2]), the pEC50 is 7.80. In assay [1] (setting [4]), the pIC50 was 6.61.
Regarding `CC(C)n1nc(C(=O)NCc2ccc(NC(=O)N(C)C)cc2)c2c1CCN(c1ccc(N3CC(O)CC3=O)cn1)C2` (racemic) [Example 93, rac-(R)-N-(4-(3,3-dimethylureido)benzyl)-5-(5-(4-hydroxy-2-oxopyrrolidin-1-yl)pyridin-2-yl)-1-isopropyl-4,5,6,7-tetrahydro-1H-pyrazolo[4,3-c]pyridine-3-carboxamide], at STAT6 (setting [5]), the pEC50 is 6.28. The molecule further showed a negative logarithm of the IC50 (pIC50) in assay [1] (setting [6]) of 5.64.
`CC(C)n1nc(C(=O)NCc2ccc(NC(=O)N3CCN(C)CC3)c(F)c2)c2c1[C@@H](C)CN(c1ccc(-n3ccccc3=O)cc1)C2` [Example 715, (S)-N-(3-fluoro-4-(4-methylpiperazine-1-carboxamido)benzyl)-1-isopropyl-7-methyl-5-(4-(2-oxopyridin-1(2H)-yl)phenyl)-4,5,6,7-tetrahydro-1H-pyrazolo[4,3-c]pyridine-3-carboxamide]: the negative-log EC50 (pEC50) at STAT6 (setting [2]) is 8.30. This molecule also showed a pIC50 in assay [1] (setting [8]) of 7.17.
For `CNC(=O)Nc1ccc(CNC(=O)c2nn(C(C)C)c3c2CN(c2ccc(N4CCCC4=O)cn2)C[C@@H]3C)cc1` [Example 480, (S)-1-isopropyl-7-methyl-N-(4-(3-methylureido)benzyl)-5-(5-(2-oxopyrrolidin-1-yl)pyridin-2-yl)-4,5,6,7-tetrahydro-1H-pyrazolo[4,3-c]pyridine-3-carboxamide], on STAT6 (setting [2]), the pEC50 was 9.52. Further, the pIC50 in assay [1] (setting [3]) was 8.52.
For `CO[C@@H]1CCN(C(=O)Nc2ccc(CNC(=O)c3nn(C(C)C)c4c3CN(c3ccc(C(=O)N(C)C)cn3)CC4)cc2)C1` [Example 179, (R)-5-(5-(dimethylcarbamoyl)pyridin-2-yl)-1-isopropyl-N-(4-(3-methoxypyrrolidine-1-carboxamido)benzyl)-4,5,6,7-tetrahydro-1H-pyrazolo[4,3-c]pyridine-3-carboxamide], the pEC50 on STAT6 (setting [5]) is 8.15. This molecule also gave a pIC50 in assay [1] (setting [6]) of 7.19.
